Test results reported in patent US12338484B2, “FRET biosensor for detecting and reporting NAD+/NADH ratio changes” (Sartorius BioAnalytical Instruments, Inc., priority 2022, dated 2025).

Target: T1, Thermus aquaticus T-Rex FRET fusion, initial construct #8, Rex(78-211)-Rex(78-189)-cpmEGFP(173/174)-Rex(190-211)-mKOk, SEQ ID NO: 168 (Thermus aquaticus, UniProt Q9X2V5, INS189[…])
T1 construct: His-tag purified from E. coli
Assay: FRET response (emission spectra) of purified initial construct #8 in absence or presence of 40 uM NADH
Format: biochemical
Parameters: key: Good response: Constructs with very clear and robust spectra separation; Poor response: those with noticeable but small spectra separation; No response: those having no spectra separation
Method: 16 initial FRET constructs (See Table 3) were constructed using expression vector pET28c with a T7 promoter and lac operator and expressed in E. coli. Cells were collected and lysed using a commercially-available lysis buffer. Proteins of interest were isolated from the lysates using Ni-NTA magnetic beads. Eluted proteins were subjected to buffer exchange and final protein concentrating. To test performance of the initial FRET constructs, their emission spectra was recorded on a plate reader in absence or presence of 40 uM NADH. Resulting emission spectra with or without the ligand were normalized and overlaid for each construct. Constructs with very clear and robust spectra separation were labeled as having “good response”, those with noticeable but small spectra separation were labeled as having “poor response”, and finally those having no spectra separation were labeled as having “no response”.

T1 sequence (Q9X2V5 other isoform, or with tags, fused parts or gaps with the stated changes): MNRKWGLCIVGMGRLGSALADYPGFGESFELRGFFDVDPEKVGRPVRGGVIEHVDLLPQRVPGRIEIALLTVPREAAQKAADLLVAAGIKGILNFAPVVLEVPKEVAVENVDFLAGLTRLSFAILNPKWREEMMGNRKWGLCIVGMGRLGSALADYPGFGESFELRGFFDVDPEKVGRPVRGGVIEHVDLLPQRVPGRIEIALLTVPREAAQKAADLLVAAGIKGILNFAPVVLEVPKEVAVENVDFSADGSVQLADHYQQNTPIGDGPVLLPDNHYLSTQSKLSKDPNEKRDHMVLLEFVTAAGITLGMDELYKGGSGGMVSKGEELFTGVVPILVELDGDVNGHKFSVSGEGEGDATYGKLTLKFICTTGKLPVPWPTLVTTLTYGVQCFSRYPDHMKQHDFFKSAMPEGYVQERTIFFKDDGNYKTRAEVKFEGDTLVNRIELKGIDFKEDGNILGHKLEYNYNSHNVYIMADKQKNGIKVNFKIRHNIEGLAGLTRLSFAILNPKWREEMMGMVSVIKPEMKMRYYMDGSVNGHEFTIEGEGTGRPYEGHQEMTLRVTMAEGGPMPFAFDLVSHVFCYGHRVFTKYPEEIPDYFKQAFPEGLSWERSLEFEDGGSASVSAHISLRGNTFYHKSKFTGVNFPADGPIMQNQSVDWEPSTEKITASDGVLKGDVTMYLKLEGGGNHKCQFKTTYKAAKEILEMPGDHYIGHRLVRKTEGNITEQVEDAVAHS

NC(=O)C1=CN([C@@H]2O[C@H](COP(=O)(O)OP(=O)(O)OC[C@H]3O[C@@H](n4cnc5c(N)ncnc54)[C@H](O)[C@@H]3O)[C@@H](O)[C@H]2O)C=CC1 [NADH]
FRET response to NADH: No response
